# Experimental data: US10730874B2 (Shire Human Genetic Therapies, Inc., priority 2018, dated 2020)
# pEC50: −log10 of the molar value.
# Target: human activated kallikrein enzyme (plasma kallikrein) (Homo sapiens (Human), UniProt P03952)
# Assay: Inhibition of human activated plasma kallikrein, fluorogenic peptide substrate assay, 500 pM enzyme format
# Format: biochemical
# Conditions: 500 pM activated kallikrein enzyme, 300 uM Pro-Phe-Arg-7-amido-4-methylcoumarin substrate, 30 min preincubation, 10 min at RT; read-out: Primary Dose Response Assay: Average EC50
# Procedure, shortened: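 Buffer 20 mM Tris pH 7.5, EDTA, NaCl, PEG-400, Triton X-100; 300 uM Pro-Phe-Arg-AMC; enzyme–inhibitor preincubation 30 min RT. Format one: 500 pM kallikrein, 10 min RT reaction; format two: 5 pM kallikrein, 18 h RT reaction. Fluorescence read at 460 nm (380 nm excitation).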
# Sequence of human activated kallikrein enzyme (plasma kallikrein) (P03952 391-638): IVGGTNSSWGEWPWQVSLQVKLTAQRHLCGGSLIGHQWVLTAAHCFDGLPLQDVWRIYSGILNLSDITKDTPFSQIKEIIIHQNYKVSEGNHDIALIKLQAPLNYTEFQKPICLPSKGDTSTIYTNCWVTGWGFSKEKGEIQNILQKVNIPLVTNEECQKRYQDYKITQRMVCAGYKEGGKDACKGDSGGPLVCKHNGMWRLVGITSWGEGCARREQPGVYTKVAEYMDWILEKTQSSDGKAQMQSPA
# Sequence of human activated kallikrein enzyme (plasma kallikrein) (P03952 20-390 partner): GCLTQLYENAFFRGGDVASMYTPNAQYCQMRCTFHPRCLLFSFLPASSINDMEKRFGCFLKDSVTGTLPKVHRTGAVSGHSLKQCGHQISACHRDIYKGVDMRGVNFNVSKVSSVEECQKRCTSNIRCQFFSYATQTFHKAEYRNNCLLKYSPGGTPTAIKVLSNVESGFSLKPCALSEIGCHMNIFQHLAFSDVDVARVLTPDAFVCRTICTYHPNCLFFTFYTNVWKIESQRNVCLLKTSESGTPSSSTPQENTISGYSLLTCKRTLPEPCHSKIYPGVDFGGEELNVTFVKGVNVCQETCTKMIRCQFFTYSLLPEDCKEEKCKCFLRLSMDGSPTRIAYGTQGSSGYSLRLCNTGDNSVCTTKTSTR
row,SMILES,pEC50
1,"O=C(NCc1ncn2ccc(Cl)cc12)c1cn(Cc2cn3nc(C4CC4)ccc3n2)nn1 [Example I-111, N-((7-chloroimidazo[1,5-a]pyridin-1-yl)methyl)-1-((6-cyclopropylimidazo[1,2-b]pyridazin-2-yl)methyl)-1H-1,2,3-triazole-4-carboxamide]",> 9.00
2,"N#Cc1cc(C2CC2)cn2cc(Cn3cc(C(=O)NCc4ncn5ccc(Cl)cc45)nn3)nc12 [Example I-112, N-((7-chloroimidazo[1,5-a]pyridin-1-yl)methyl)-1-((8-cyano-6-cyclopropylimidazo[1,2-a]pyridin-2-yl)methyl)-1H-1,2,3-triazole-4-carboxamide]",> 9.00
3,"CCOC(=O)C1CC1c1nn(Cc2cn3cc(C4CC4)ccc3n2)cc1C(=O)NCc1ncn2ccc(Cl)cc12 (stereo not shown) [Example I-113, ethyl 2-(4-(((7-chloroimidazo[1,5-a]pyridin-1-yl)methyl)carbamoyl)-1-((6-cyclopropylimidazo[1,2-a]pyridin-2-yl)methyl)-1H-pyrazol-3-yl)cyclopropane-1-carboxylate]",8.00 to 9.00
4,"O=C(NCc1ncn2ccc(Cl)cc12)c1cnn(Cc2cn3cc(C4CC4)cc(N4CCCC4=O)c3n2)c1 [Example I-114, N-((7-chloroimidazo[1,5-a]pyridin-1-yl)methyl)-1-((6-cyclopropyl-8-(2-oxopyrrolidin-1-yl)imidazo[1,2-a]pyridin-2-yl)methyl)-1H-pyrazole-4-carboxamide]",> 9.00
5,"CCOC(=O)C1(c2cccn3cc(Cn4cc(C(=O)NCc5ncn6ccc(Cl)cc56)cn4)nc23)CC1 [Example I-115, ethyl 1-(2-((4-(((7-chloroimidazo[1,5-a]pyridin-1-yl)methyl)carbamoyl)-1H-pyrazol-1-yl)methyl)imidazo[1,2-a]pyridin-8-yl)cyclopropane-1-carboxylate]",> 9.00
6,"O=C(NCc1ncn2ccc(Cl)cc12)c1cnn(Cc2cn3cccc(C4(C(=O)O)CC4)c3n2)c1 [Example I-116, 1-(2-((4-(((7-chloroimidazo[1,5-a]pyridin-1-yl)methyl)carbamoyl)-1H-pyrazol-1-yl)methyl)imidazo[1,2-a]pyridin-8-yl)cyclopropane-1-carboxylic acid]",8.00 to 9.00
7,"O=C(NCc1ncn2ccc(Cl)cc12)c1cnn(Cc2cn3cccc(C4(CO)CC4)c3n2)c1 [Example I-117, N-((7-chloroimidazo[1,5-a]pyridin-1-yl)methyl)-1-((8-(1-(hydroxymethyl)cyclopropyl)imidazo[1,2-a]pyridin-2-yl)methyl)-1H-pyrazole-4-carboxamide]",> 9.00
8,"C=Cc1ccn2cnc(CNC(=O)c3cnn(Cc4cn5cc(C6CC6)ccc5n4)c3)c2c1 [Example I-118, 1-((6-cyclopropylimidazo[1,2-a]pyridin-2-yl)methyl)-N-((7-vinylimidazo[1,5-a]pyridin-1-yl)methyl)-1H-pyrazole-4-carboxamide]",8.00 to 9.00
9,"CC(C)(O)CCc1cc(C2CC2)cn2cc(Cn3cc(C(=O)NCc4ncn5ccc(Cl)cc45)cn3)nc12 [Example I-119, N-((7-chloroimidazo[1,5-a]pyridin-1-yl)methyl)-1-((6-cyclopropyl-8-(3-hydroxy-3-methylbutyl)imidazo[1,2-a]pyridin-2-yl)methyl)-1H-pyrazole-4-carboxamide]",> 9.00
10,"O=C(NCc1ncn2ccc(Cl)cc12)c1cn(Cc2cn3cc(C4CC4)ccc3n2)nc1C1CC1C(=O)O (stereo not shown) [Example I-120, 2-(4-(((7-chloroimidazo[1,5-a]pyridin-1-yl)methyl)carbamoyl)-1-((6-cyclopropylimidazo[1,2-a]pyridin-2-yl)methyl)-1H-pyrazol-3-yl)cyclopropane-1-carboxylic acid]",> 9.00
11,"O=C(NCc1ncn2ccc(Cl)cc12)c1cnn(Cc2cn3cc(C4CC4)ccc3n2)n1 [Example I-121, N-((7-chloroimidazo[1,5-a]pyridin-1-yl)methyl)-2-((6-cyclopropylimidazo[1,2-a]pyridin-2-yl)methyl)-2H-1,2,3-triazole-4-carboxamide]",> 9.00
12,"O=C(NCc1ncn2ccc(Cl)cc12)c1cnn(Cc2cn3cc(C4CC4)cc(C4(O)COC4)c3n2)c1 [Example I-122, N-((7-chloroimidazo[1,5-a]pyridin-1-yl)methyl)-1-((6-cyclopropyl-8-(3-hydroxyoxetan-3-yl)imidazo[1,2-a]pyridin-2-yl)methyl)-1H-pyrazole-4-carboxamide]",> 9.00
13,"N#CNC(=NCc1ncn2ccc(Cl)cc12)c1cnn(Cc2cn3cc(C4CC4)ccc3n2)c1 [Example I-123, N′-((7-chloroimidazo[1,5-a]pyridin-1-yl)methyl)-N-cyano-1-((6-cyclopropylimidazo[1,2-a]pyridin-2-yl)methyl)-1H-pyrazole-4-carboximidamide]",8.00 to 9.00
14,"CC(c1cn2cc(C3CC3)ccc2n1)n1cc(C(=O)NCc2ncn3ccc(Cl)cc23)nn1 (stereo not shown) [Example I-124, N-((7-chloroimidazo[1,5-a]pyridin-1-yl)methyl)-1-(1-(6-cyclopropylimidazo[1,2-a]pyridin-2-yl)ethyl)-1H-1,2,3-triazole-4-carboxamide]",8.00 to 9.00
15,"COCCc1cc(C2CC2)cn2cc(Cn3cc(C(=O)NCc4ncn5ccc(Cl)cc45)cn3)nc12 [Example I-125, N-((7-chloroimidazo[1,5-a]pyridin-1-yl)methyl)-1-((6-cyclopropyl-8-(2-methoxyethyl)imidazo[1,2-a]pyridin-2-yl)methyl)-1H-pyrazole-4-carboxamide]",> 9.00
16,"O=C(NCc1ncn2ccc(Cl)cc12)c1cn(Cc2cn3cc(C4CC4)ccc3n2)nc1Cc1nn[nH]n1 [Example I-126, 3-((2H-tetrazol-5-yl)methyl)-N-((7-chloroimidazo[1,5-a]pyridin-1-yl)methyl)-1-((6-cyclopropylimidazo[1,2-a]pyridin-2-yl)methyl)-1H-pyrazole-4-carboxamide]",> 9.00

# The next lines start with the values.
row,pEC50,SMILES
1,> 9.00,"CCOC(=O)C1CC1c1cc(C2CC2)cn2cc(Cn3cc(C(=O)NCc4ncn5ccc(Cl)cc45)cn3)nc12 (stereo not shown) [Example I-127, ethyl 2-(2-((4-(((7-chloroimidazo[1,5-a]pyridin-1-yl)methyl)carbamoyl)-1H-pyrazol-1-yl)methyl)-6-cyclopropylimidazo[1,2-a]pyridin-8-yl)cyclopropane-1-carboxylate]"
2,> 9.00,"N#Cc1cc(C2CC2)cn2cc(Cc3nnc(C(=O)NCc4ncn5ccc(Cl)cc45)o3)nc12 [Example I-128, N-((7-chloroimidazo[1,5-a]pyridin-1-yl)methyl)-5-((8-cyano-6-cyclopropylimidazo[1,2-a]pyridin-2-yl)methyl)-1,3,4-oxadiazole-2-carboxamide]"
3,> 9.00,"O=C(NCc1ncn2ccc(Cl)cc12)c1cnn(Cc2cn3cc(C4CC4)cnc3n2)c1 [Example I-129, N-((7-chloroimidazo[1,5-a]pyridin-1-yl)methyl)-1-((6-cyclopropylimidazo[1,2-a]pyrimidin-2-yl)methyl)-1H-pyrazole-4-carboxamide]"
4,7.00 to 8.00,Cc1ccc2nc(Cn3cc(C(=O)NCc4ncn5ccc(Cl)cc45)cn3)cn2c1C [Example I-130]
5,> 9.00,"N#Cc1cc(C2CC2)cn2cc(Cn3cc(C(=O)NCc4ncn5ccc(Br)c(F)c45)nn3)nc12 [Example I-131, N-((7-bromo-8-fluoroimidazo[1,5-a]pyridin-1-yl)methyl)-1-((8-cyano-6-cyclopropylimidazo[1,2-a]pyridin-2-yl)methyl)-1H-1,2,3-triazole-4-carboxamide]"
6,> 9.00,"O=C(NCc1ncn2ccc(Cl)cc12)c1cnn(Cc2cn3cc(C4CC4)cc(C4COC4)c3n2)c1 [Example I-132, N-((7-chloroimidazo[1,5-a]pyridin-1-yl)methyl)-1-((6-cyclopropyl-8-(oxetan-3-yl)imidazo[1,2-a]pyridin-2-yl)methyl)-1H-pyrazole-4-carboxamide]"
7,> 9.00,"O=C(NCc1ncn2ccc(Cl)cc12)c1cnn(Cc2cn3cc(C4CC4)cc(C4CC4C(=O)O)c3n2)c1 (stereo not shown) [Example I-133, 2-(2-((4-(((7-chloroimidazo[1,5-a]pyridin-1-yl)methyl)carbamoyl)-1H-pyrazol-1-yl)methyl)-6-cyclopropylimidazo[1,2-a]pyridin-8-yl)cyclopropane-1-carboxylic acid]"
8,> 9.00,"O=C(NCc1ncn2ccc(Br)c(F)c12)c1cn(Cc2cn3cc(C4CC4)ccc3n2)nn1 [Example I-134, N-((7-bromo-8-fluoroimidazo[1,5-a]pyridin-1-yl)methyl)-1-((6-cyclopropylimidazo[1,2-a]pyridin-2-yl)methyl)-1H-1,2,3-triazole-4-carboxamide]"
9,> 9.00,"O=C(NCc1ncn2ccc(Br)c(F)c12)c1nnn(Cc2cn3cc(C4CC4)ccc3n2)n1 [Example I-135, N-((7-bromo-8-fluoroimidazo[1,5-a]pyridin-1-yl)methyl)-2-((6-cyclopropylimidazo[1,2-a]pyridin-2-yl)methyl)-2H-tetrazole-5-carboxamide]"
10,> 9.00,"O=C(NCc1ncn2ccc(Br)c(F)c12)c1nnc(Cc2cn3cc(C4CC4)ccc3n2)o1 [Example I-136, N-((7-bromo-8-fluoroimidazo[1,5-a]pyridin-1-yl)methyl)-5-((6-cyclopropylimidazo[1,2-a]pyridin-2-yl)methyl)-1,3,4-oxadiazole-2-carboxamide]"
11,> 9.00,"O=C(NCc1ncn2ccc(Cl)c(F)c12)c1nnc(Cc2cn3cc(C4CC4)ccc3n2)o1 [Example I-137, N-((7-chloro-8-fluoroimidazo[1,5-a]pyridin-1-yl)methyl)-5-((6-cyclopropylimidazo[1,2-a]pyridin-2-yl)methyl)-1,3,4-oxadiazole-2-carboxamide]"
12,> 9.00,"O=C(NCc1ncn2ccc(Cl)cc12)c1nnc(Cc2cn3nc(C4CC4)ccc3n2)o1 [Example I-138, N-((7-chloroimidazo[1,5-a]pyridin-1-yl)methyl)-5-((6-cyclopropylimidazo[1,2-b]pyridazin-2-yl)methyl)-1,3,4-oxadiazole-2-carboxamide]"
